According to patent US7811605B2, “Method of formation of shape-retentive aggregates of gel particles and their uses” (ULURU Inc., priority 2002, dated 2010):

Assay: Entrapment and release of bromocresol green from particle aggregates in PBS, UV-Visible absorption
Type: physicochemical
Conditions: 1 mg dye in 2 mL Tween 80 stabilized pHEMA particles, 36 mg/mL, injected into PBS; discrete particles and 50:50 mixtures of two sizes
Description: Injection of a dispersion of particles with a small molecule dissolved in the suspension medium forms an aggregate that traps some of the small molecule. In a typical experiment, 1 mg of bromocresol green dye was dissolved into 2 mL of a suspension of Tween 80 stabilized pHEMA particles (725 nm in diameter) with a hydrated polymer mass of 36 mg/mL. The dispersed particles and dye were injected into a solution of phosphate buffered saline. After 10 minutes of aggregation, the solution was shaken at 10 cycles per second to insure adequate mixing. 2 mL samples of supernatant were taken and characterized by UV-Visible absorption spectroscopy. […] In both cases, most of the small molecule is released within the first 3-5 hours, however, the burst effect is smaller in the mixed aggregate system.

time within which most of the small molecule is released: 3 to 5 h
Compound: Cc1c(C2(c3cc(Br)c(O)c(Br)c3C)OS(=O)(=O)c3ccccc32)cc(Br)c(O)c1Br [bromocresol green]
